Measured values reported in ChEMBL document CHEMBL4425165, “Discovery of Pyrazolo[1,5-a]pyrimidine TTK Inhibitors: CFI-402257 is a Potent, Selective, Bioavailable Anticancer Agent” (ACS Med Chem Lett, 2016).
≈ marks a conversion by molar mass, not a printed value.

Legend:
[1] = test system: MDA-MB-468; test: Growth inhibition of human MDA-MB-468 cells measured after 5 days by sulforhodamine B assay; format: functional; conditions: MDA-MB-468, 120 h
[2] = test system: HCT-116; test: Growth inhibition of human HCT116 cells measured after 5 days by sulforhodamine B assay; format: functional; conditions: HCT-116, 120 h
[3] = test system: OVCAR-3; test: Growth inhibition of human OVCAR3 cells measured after 5 days by sulforhodamine B assay; format: functional; conditions: OVCAR-3, 120 h
[4] = Solubility of the compound at pH 7.4; format: physicochemical; conditions: buffer
[5] = Solubility of the compound at pH 2; format: physicochemical; conditions: buffer
[6] = Dissociation constant, pKa of the compound; format: physicochemical
[7] = target: T1, Dual specificity protein kinase TTK (Homo sapiens, UniProt P33981)
T1 sequence (P33981 whole entry): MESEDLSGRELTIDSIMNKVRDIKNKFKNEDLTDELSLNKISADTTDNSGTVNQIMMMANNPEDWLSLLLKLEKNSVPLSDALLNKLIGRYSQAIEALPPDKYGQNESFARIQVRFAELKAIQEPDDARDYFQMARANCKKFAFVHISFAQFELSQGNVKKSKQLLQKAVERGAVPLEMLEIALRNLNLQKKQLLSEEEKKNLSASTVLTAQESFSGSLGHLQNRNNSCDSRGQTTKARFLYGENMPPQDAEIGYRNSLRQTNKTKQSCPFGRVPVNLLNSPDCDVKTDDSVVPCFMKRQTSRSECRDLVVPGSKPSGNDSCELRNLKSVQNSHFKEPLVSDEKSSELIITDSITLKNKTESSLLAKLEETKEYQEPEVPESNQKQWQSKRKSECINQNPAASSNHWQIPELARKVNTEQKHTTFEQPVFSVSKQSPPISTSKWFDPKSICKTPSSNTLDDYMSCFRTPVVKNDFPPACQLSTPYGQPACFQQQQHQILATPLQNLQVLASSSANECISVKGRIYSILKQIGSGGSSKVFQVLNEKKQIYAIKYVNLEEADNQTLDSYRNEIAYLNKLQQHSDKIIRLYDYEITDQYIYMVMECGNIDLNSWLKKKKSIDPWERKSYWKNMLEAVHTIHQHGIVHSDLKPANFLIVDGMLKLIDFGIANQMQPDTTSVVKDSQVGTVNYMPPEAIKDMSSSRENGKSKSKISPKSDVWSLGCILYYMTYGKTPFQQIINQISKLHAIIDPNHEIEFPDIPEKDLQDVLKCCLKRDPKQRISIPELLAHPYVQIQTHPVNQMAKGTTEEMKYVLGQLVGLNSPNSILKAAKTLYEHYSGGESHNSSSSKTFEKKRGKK

[8] = Cmax in athymic CD-1 nude mouse at 10 mg/kg, po by LC-MS/MS analysis; format: ADME, organism-based; parameters: dose 10 mg/kg, route oral; conditions: in vivo
[9] = AUC in athymic CD-1 nude mouse at 10 mg/kg, po by LC-MS/MS analysis; format: ADME, organism-based; conditions: in vivo
[10] = target: Cytochrome P450 3A4 (Homo sapiens, UniProt P08684); test: Inhibition of CYP3A4 (unknown origin) preincubated for 10 mins followed by addition of BFC as substrate measured after 10 mins in presence of NADP by fluorescence analysis; format: ADME
Sequence of Cytochrome P450 3A4 (P08684 whole entry): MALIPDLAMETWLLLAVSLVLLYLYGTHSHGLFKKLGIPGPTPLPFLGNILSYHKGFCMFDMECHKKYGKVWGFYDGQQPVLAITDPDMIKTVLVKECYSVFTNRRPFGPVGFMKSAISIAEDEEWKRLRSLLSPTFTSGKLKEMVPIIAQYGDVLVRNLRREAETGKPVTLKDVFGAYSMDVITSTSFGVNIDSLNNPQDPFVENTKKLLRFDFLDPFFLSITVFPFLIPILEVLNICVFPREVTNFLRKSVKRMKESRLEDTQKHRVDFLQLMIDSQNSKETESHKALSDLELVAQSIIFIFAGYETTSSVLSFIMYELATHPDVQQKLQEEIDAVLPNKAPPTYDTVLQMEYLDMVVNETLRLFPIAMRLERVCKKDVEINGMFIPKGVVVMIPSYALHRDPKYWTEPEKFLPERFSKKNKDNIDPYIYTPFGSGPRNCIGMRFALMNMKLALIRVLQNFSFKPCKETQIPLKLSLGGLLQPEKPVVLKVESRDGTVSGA

[11] = Clearance in Sprague-Dawley rat at 1 mg/kg, iv or 5 mg/kg, po by LC-MS/MS analysis; format: ADME, organism-based; conditions: in vivo
[12] = AUC (0 to infinity) in Sprague-Dawley rat at 5 mg/kg, po by LC-MS/MS analysis; format: ADME, organism-based; parameters: dose 5 mg/kg, time infinity, route oral; conditions: in vivo
[13] = Bioavailability in Sprague-Dawley rat at 5 mg/kg by LC-MS/MS analysis; format: ADME, organism-based; conditions: in vivo
[14] = Clearance in beagle dog at 1 mg/kg, iv or 5 mg/kg, po by LC-MS/MS analysis; format: ADME, organism-based, Canis lupus familiaris; conditions: in vivo
[15] = AUC (0 to infinity) in beagle dog at 5 mg/kg, po by LC-MS/MS analysis; format: ADME, organism-based, Canis lupus familiaris; parameters: dose 5 mg/kg, route oral, time infinity; conditions: in vivo
[16] = Bioavailability in beagle dog at 5 mg/kg by LC-MS/MS analysis; format: ADME, organism-based, Canis lupus familiaris; conditions: in vivo
[17] = test system: HCT-116; test: Antitumor activity against human HCT116 cells xenografted in athymic nude mouse assessed as tumor growth inhibition at 15 mg/kg, po qd measured on day 21; format: functional; conditions: HCT-116, po, 504 h, read-out: TGI
[18] = test system: HT-29; test: Antitumor activity against human HT-29 cells xenografted in athymic nude mouse assessed as tumor growth inhibition at 15 mg/kg, po qd measured on day 21; format: functional; conditions: HT-29, po, 504 h, read-out: TGI
[19] = Toxicity in po dosed athymic nude mouse; format: organism-based; conditions: in vivo

| Compound | GI50 [1] | GI50 [2] | GI50 [3] | solubility [4] | solubility [5] | pKa [6] | IC50 [7] | Cmax [8] | AUC [9] | IC50 [10] | clearance [11] | AUC(0-inf) [12] | bioavailability [13] | clearance [14] | AUC(0-inf) [15] | bioavailability [16] | inhibition in vivo at 15 mg/kg [17] | inhibition in vivo at 15 mg/kg [18] | MTD [19] |
| --- | --- | --- | --- | --- | --- | --- | --- | --- | --- | --- | --- | --- | --- | --- | --- | --- | --- | --- | --- |
| Cc1cc(-c2cnn3c(NCC4CCOCC4)cc(N[C@@H]4CCCC[C@H]4O)nc23)ccc1C(=O)NC1CC1 | 180 nM | 130 nM | 340 nM | 13 µg/mL (≈ 25.1 µM) | 410 µg/mL (≈ 790 µM) | 3.3 | 13 nM |  |  |  |  |  |  |  |  |  |  |  |  |
| Cc1cc(-c2cnn3c(NCCN4CCOCC4)cc(Oc4ccccc4)nc23)ccc1C(=O)NC1CC1 | 18 nM | 11 nM | 24 nM | 1.6 µg/mL (≈ 3.12 µM) | 12000 µg/mL (≈ 23400 µM) | 6.7 | 3 nM | 1000 ng/mL | 2700 ng·h/mL |  |  |  |  |  |  |  |  |  |  |
| Cc1cc(-c2cnn3c(NC[C@H]4C[C@@](C)(O)C4)cc(NC4CCCC4)nc23)ccc1C(=O)NC1CC1 | 57 nM | 14 nM | 87 nM | 3.6 µg/mL (≈ 7.37 µM) | 110 µg/mL (≈ 225 µM) | 3.2 | 2.6 nM | 2900 ng/mL | 7300 ng·h/mL |  |  |  |  |  |  |  |  |  |  |
| Cc1cc(-c2cnn3c(NCC4CCOCC4)cc(NC4CCCC4)nc23)ccc1C(=O)NC1CC1 | 36 nM | 15 nM | 90 nM | 3.1 µg/mL (≈ 6.34 µM) | 88 µg/mL (≈ 180 µM) | 3.2 | 3.2 nM | 2300 ng/mL | 4000 ng·h/mL |  |  |  |  |  |  |  |  |  |  |
| Cc1cc(-c2cnn3c(NC[C@H]4C[C@](C)(O)C4)cc(NC4CCCC4)nc23)ccc1C(=O)NC1CC1 | 130 nM | 49 nM | 210 nM | 3.6 µg/mL (≈ 7.37 µM) | 110 µg/mL (≈ 225 µM) | 3.2 | 5.3 nM |  |  |  |  |  |  |  |  |  |  |  |  |
| Cc1cc(-c2cnn3c(NC[C@H]4CC[C@@H](O)CC4)cc(Oc4cccnc4)nc23)ccc1C(=O)NC1CC1 | 19 nM | 17 nM | 43 nM | 2.1 µg/mL (≈ 4.1 µM) | 360 µg/mL (≈ 702 µM) | 3.7 | 1.8 nM | 750 ng/mL | 3400 ng·h/mL |  |  |  |  |  |  |  |  |  |  |
| Cc1cc(-c2cnn3c(NCC4CCOCC4)nc(NC4CCCC4)nc23)ccc1C(=O)NC1CC1 | 320 nM | 130 nM | 480 nM | 3.6 µg/mL (≈ 7.35 µM) | 28 µg/mL (≈ 57.2 µM) | 2.7 | 5.8 nM | 430 ng/mL | 530 ng·h/mL |  |  |  |  |  |  |  |  |  |  |
| Cc1cc(-c2cnn3c(NCC4CCOCC4)cc(Oc4ccccc4)nc23)ccc1C(=O)NC1CC1 | 13 nM | 3 nM | 22 nM | 0.5 µg/mL (≈ 1 µM) | 12 µg/mL (≈ 24.1 µM) | 3.4 | 2.5 nM | 560 ng/mL | 3100 ng·h/mL |  |  |  |  |  |  |  |  |  |  |
| Cc1cc(-c2cnn3c(NCC4CCOCC4)nc(Oc4ccccc4)nc23)ccc1C(=O)NC1CC1 | 160 nM | 14 nM | 190 nM | 1.1 µg/mL (≈ 2.21 µM) | 1.5 µg/mL (≈ 3.01 µM) | 1.6 | 1.4 nM | 890 ng/mL | 1500 ng·h/mL |  |  |  |  |  |  |  |  |  |  |
| Cc1cc(-c2cnn3c(NC[C@H]4CC[C@H](O)CC4)cc(Oc4cccnc4)nc23)ccc1C(=O)NC1CC1 | 160 nM | 50 nM | 270 nM | 2.1 µg/mL (≈ 4.1 µM) | 360 µg/mL (≈ 702 µM) | 3.7 | 2.8 nM | 190 ng/mL | 700 ng·h/mL |  |  |  |  |  |  |  |  |  |  |
| Cc1cc(-c2cnn3c(NC[C@H]4C[C@](C)(O)C4)cc(Oc4cccnc4)nc23)ccc1C(=O)NC1CC1 | 71 nM | 40 nM | 100 nM | 3.3 µg/mL (≈ 6.62 µM) | 560 µg/mL (≈ 1120 µM) | 3.7 |  | 1800 ng/mL | 3900 ng·h/mL |  |  |  |  |  |  |  |  |  |  |
| CC[C@H](CO)Nc1cc(NCC2CCOCC2)n2ncc(-c3ccc(C(=O)NC4CC4)c(C)c3)c2n1 | 480 nM | 210 nM | 1100 nM | 27 µg/mL (≈ 54.8 µM) | 1100 µg/mL (≈ 2230 µM) | 3.5 | 21 nM |  |  |  |  |  |  |  |  |  |  |  |  |
| Cc1cc(-c2cnn3c(NCC4CCOCC4)cc(N[C@H]4CCCC[C@H]4O)nc23)ccc1C(=O)NC1CC1 | 3 nM | 1 nM | 9 nM | 13 µg/mL (≈ 25.1 µM) | 410 µg/mL (≈ 790 µM) | 3.3 | 2 nM | 2200 ng/mL | 2400 ng·h/mL |  |  |  |  |  |  |  |  |  |  |
| Cc1cc(-c2cnn3c(NCC4CCOCC4)cc(N[C@@H](C4CC4)C(C)(C)O)nc23)ccc1C(=O)NC1CC1 | 60 nM | 20 nM | 80 nM | 10 µg/mL (≈ 18.8 µM) | 470 µg/mL (≈ 882 µM) | 3.5 | 7 nM | 5500 ng/mL | 20000 ng·h/mL | 3000 nM | 66 mL/min/kg | 490 ng·h/mL | 38% | 13 mL/min/kg | 6900 ng·h/mL | 98% | 70% | 38% | 15 mg/kg |
| Cc1cc(-c2cnn3c(NCC4CC4)cc(NC4CCCC[C@H]4O)nc23)ccc1C(=O)NC1CC1 (single isomer, unassigned) | 20 nM | 9 nM | 15 nM | 5.3 µg/mL (≈ 11.2 µM) | 170 µg/mL (≈ 358 µM) | 3.4 | 2.2 nM | 1700 ng/mL | 3100 ng·h/mL | 2000 nM | 22 mL/min/kg | 3700 ng·h/mL | 94% | 7.9 mL/min/kg | 14000 ng·h/mL | 95% | 72% | 53% | 15 mg/kg |
| Cc1cc(-c2cnn3c(NC[C@H]4C[C@H](O)C4)cc(Oc4cccnc4)nc23)ccc1C(=O)NC1CC1 | 2 nM | 2 nM | 11 nM | 5.4 µg/mL (≈ 11.1 µM) | 930 µg/mL (≈ 1920 µM) | 3.7 | 1.1 nM | 120 ng/mL | 130 ng·h/mL |  |  |  |  |  |  |  |  |  |  |
| Cc1cc(-c2cnn3c(NC[C@H]4C[C@H](O)C4)cc(NC4CCCC4)nc23)ccc1C(=O)NC1CC1 | 35 nM | 14 nM | 68 nM | 5.4 µg/mL (≈ 11.4 µM) | 930 µg/mL (≈ 1960 µM) | 3.7 | 2.4 nM | 180 ng/mL | 130 ng·h/mL |  |  |  |  |  |  |  |  |  |  |
| Cc1cc(-c2cnn3c(NCC4CCOCC4)cc(N[C@H]4CCC[C@H]4O)nc23)ccc1C(=O)NC1CC1 | 62 nM | 59 nM | 79 nM | 23 µg/mL (≈ 45.6 µM) | 480 µg/mL (≈ 951 µM) | 3.2 | 2.7 nM | 1300 ng/mL | 1500 ng·h/mL |  |  |  |  |  |  |  |  |  |  |
